Assay results: patent US8911953B2, “TDF-related compounds and analogs thereof, analogs and bioactive fragments” (Thrasos Innovation, Inc., priority 2005, dated 2014)
Positions of bridges follow the written chain, without caps; N, C: chain ends. No end group written: not given here.

B1: BMP-7: recombinant human mature BMP-7 (BMP-7 or TDF-1), positive control therapy (protein)
chain: STGSKQRSQNRSKTPKNQEALRMANVAENSSSDQRQACKKHELYVSFRDLGWQDWIIAPEGYAAYYCEGECAFPLNSYMNATNHAIVQTLVHFINPETVPKPCCAPTQLNAISVLYFDDSSNVILKKYRNMVVRACGCH

Tests used:
[1] = tested on: rats with coronary artery ligation; experiment: Left anterior descending (LAD) coronary occlusion model of myocardial injury; format: in vivo, rat; conditions: for reduction in AN/AR ratio as compared to PBS-treated animals: Day 7
Experimental: Schematic of the Left Anterior Descending […] (LAD) occlusion model of myocardial injury. The image represents a cross section through the heart of rats showing that treatment with TDFRP or BMP prevents ischemic injury. Left anterior descending arteries were occluded for 20 minutes to induce ischemia. Upon removal of the ligature, blood flow into the heart causes reperfusion injury and apoptosis. After seven days, the heart was stained with Evan's blue dye to differentiate the perfused, unaffected area from the occluded region (area at risk). Four doses of TDFRP (SEQ ID NO:45) were used in the treated animals (pre-occlusion, and 24, 48 and 72 hrs post-occlusion). A) left anterior descending coronary artery ligated to create ischemia, B) infarct areas (IA), C) the unaffected, perfused region. Dyed blue at sacrifice, D) ventricular lumen, E) approximate regional boundary, F) the affected (ischemic) region (AR). Where reperfusion injury leads to apoptosis
The efficacy of TDFRP compound (SEQ ID NO:45) in ameliorating the effects of myocardial ischemia was investigated in the rat after ligation of the coronary artery. […] unmanipulated rats, sorted into two large groups by initial body weight (>300 g pre-surgery) were evaluated. Fourteen rats underwent surgery on week, 12 rats underwent surgery on week 2 and rats were sorted into 3 treatment groups: Group 1, PBS; Group 2, positive control TDF-1; Group 3, test article TDFRP (SEQ ID NO:45) (see Table 13).
Three days prior to surgery, a serum sample was collected from the tail vein of each rat (pre-bleed). On the day of surgery, each rat was administered compound intravenously 2 hr prior to surgery. Surgery was performed sequentially after intubation and ventilation with 0.5% isofluorane anesthetic. Lead II ECG was monitored throughout the surgery. A thoracotomy was performed and the main left coronary artery was occluded for 20 min using a snare technique (FIG. 19). Successful occlusion of the artery was confirmed by ST elevation in lead II ECG within the first 5 minutes of ligation, and by frequent ventricular arrhythmia after 10 minutes of ligation. The snare was released to restore blood flow. The original suture loop was left in place for subsequent re-occlusion on Day 7. After initiation of reperfusion, the chest cavity was closed with 2 layers of suture. Rats were weaned from the ventilator and observed until fully conscious and mobile. Antibiotic (QD) and analgesic (Q8D) were provided. Additional serum samples were collected 6, 24, 72 and 120 hours post occlusion. Additional compound, positive control or vehicle treatments were delivered by intravenous injection in the tail vein at 24, 72 and 120 hours post occlusion.
On Day 7, each rat was anesthetized (ketamine:xyline), the chest cavity re-opened and a terminal blood sample (1 ml) was withdrawn from the abdominal vein. Gross pathology (i.e. inflammation) was noted and graded on a 4 point inflammation scale: 0=no inflammation, 1=slight, 2=moderate, 3=severe and 4=complete pericarditis. The left coronary artery was then re-occluded using the existing stitch and a concentrated solution of Evans Blue dye in saline (20 mg/ml; 0.5 ml/rat) was injected into the heart apex to stain the non-ischemic cardiac tissue blue. The heart was then arrested by injection of a saturated solution of potassium chloride into the right ventricle. The heart was then excised, wrapped in cellophane and stored at −20° C. for 1.5 hour. The cold heart was cut into 10 cross-sectional slices (2 mm/slice) and each section was numbered and incubated separately in triphenyltetrazolium chloride (1% TTC in PBS) for 10 minutes at 37° C. prior to fixing in 4% formaldehyde. Subsequently, each slice was photographed. For each slice, the “area at risk (AR)” and the “area occupied by necrosis (AN)” were measured by morphometry. The ratio of AN to AR is a measure of the degree of damage resulting from the occlusion (FIG. 20).

[2] = tested on: UUO mice; experiment: Unilateral ureteral obstruction (UUO) mouse model of chronic renal injury; format: in vivo
Experimental: Schematic of the unilateral urinary obstruction (UUO) mouse model of chronic renal injury. One ureter was ligated on Day 0 (D0) and mice received one of the following treatments: vehicle (control), BMP-7 by intraperitoneal (ip) administration (positive control) or TDFRP by ip, intravenous (iv) or oral (po) administration. Mice were sacrificed on Day 5 (D5) or Day 7 (D7) and the kidneys were evaluated for disease pathology.
Unilateral ureteral obstruction (UUO) is a model resembling human obstructive nephropathy, which represents an inducible chronic model of interstitial fibrosis. UUO is induced by ligation of one ureter, leaving the contra-lateral kidney to serve as a control. As a result of the procedure, mice develop renal tubulointerstitial inflammation, tubulointerstitial fibrosis and tubular atrophy, without hypertension, proteinuria, lipid dysregulation and little glomerular damage contributing to the disease state (Ito et al (2004). J. Urol. February; 171(2 Pt 1): 926-30.; Bhangdia et al. (2003) J. Urol. November; 170(5): 2057-62.; Rawashdeh et al. (2003) Invest Radiol. 2003 March; 38(3): 153-8.; Hruska et al (2000) Am J Physiol Renal Physiol. 2000 July; 79(1): F130-43.). Furthermore, renal fibrosis is associated with alteration of epithelial and fibroblastic cells to myofibroerblasts, along with increased expression of TGF-beta and progressive loss of renal function.

Molecule | reduction in AN/AR ratio as compared to PBS-treated animals ([1]; 10 mg/kg i.v.) [%] | reduction in inflammation score as compared to PBS-treated animals ([1]; 10 mg/kg i.v., Day 7, 4 point inflammation scale) [%] | inflammation and cytotoxic effects toward cardiomyocytes following myocardial infarction ([1]; myocardial ischemia and reperfusion injury) | degree of cardiac inflammation ([1]; rat, in vivo) | necrotic area to area at risk ratio (IA/AR) ([1]; rat, in vivo) | severity of tubular damage (percent of renal tubular degradation) ([2]; 5-day model, administered orally, ip or iv) | progression of tubulointerstitial fibrosis disease ([2]; 5-day model, oral 5 mg/kg/24 hours or iv 50 mg/kg/24 hours) | progression of tubulointerstitial fibrosis disease ([2]; 7-day model, oral or iv 5 mg/kg/24 hours) | reduction in AN/AR ratio as compared to PBS-treated animals ([1]; 160 μg/kg i.v.) [%] | chronic renal injury ([2]; 5-day model, ip 300 ug/kg/48 hours) | UUO chronic renal injury ([2]; 7-day model, ip 300 ug/kg/48 hours)
CYFDDSSNVLCKKYRS (disulfide 1-11 (inferred); not fully specified) [SEQ ID NO:45] | 84 | 78 | ameliorate inflammation and cytotoxic effects | reduces | reduces | attenuated the severity of tubular damage | attenuated progression | significantly attenuated |  |  | 
B1 |  |  |  |  |  |  |  |  | 7 | Reversal | Reversal
